Results as given in patent publication US20170049822A1, “METHODS OF ENHANCING STEM CELL ENGRAFTMENT” (TEXAS HEART INSTITUTE, priority 2014, published 2017).

Tests used:
ischemic hindlimbs [1] = experiment: Quantitative micro-CT of microvascular network in ischemic hindlimbs; type: in vivo, mice
Description: The outcomes of local delivery of CPGI2, a prostacyclin analogue, to ischemic hindlimbs were investigated. More specifically, remodeling of microvascular network in ischemic hindlimbs was monitored in conjunction with CPGI2 treatment. High-definition, volumetric, quantitative micro-CT was used to assess the overall microvascular geometry of ischemic and contralateral non-ischemic legs 14 days after femoral occlusion and constant local administration of CPGI2 or saline. […] Similar global morphometric analyses were used to evaluate contralateral non-ischemic legs. […] To further verify the pro-arteriogenic effect of CPGI2, a quantitative histogram was generated by using micro-CT to illustrate frequency and distribution of blood vessel size in CPGI2-treated legs in comparison to saline-treated or contralateral non-ischemic legs. […] Referring to FIG. 4B, the red dashed circles show more vasculature in the thigh muscle where CPGI2 was administered as compared to the similar area where saline was administered. […] CPGI2 treatment positively affects remodeling of the microvascular network in ischemic hindlimbs. Quantitative micro-CT analyses indicate CPGI2 augments vascular growth.

ischemic hindlimbs [2] = experiment: Live microscopy / quantitative confocal analysis of arteriolar growth in ischemic hindlimbs; type: in vivo, mice; details: ischemic legs
Description: The outcomes of local delivery of CPGI2, a prostacyclin analogue, to ischemic hindlimbs were investigated. More specifically, arteriolar growth in ischemic hindlimbs was monitored in conjunction with CPGI2 treatment. Dynamic changes in the microvascular morphology of the limb region distal to the ligation where CPGI2 was applied were microscopically examined in live mice. At 7 days after treatment, structural remodeling at the arteriolar level in the CPGI2 group was more distinct than in the saline group, as shown in FIG. 3. […] More intra-arteriolar connections (solid line arrows, as shown in FIG. 3) and corkscrew extensions of arterioles (dashed line arrows, as shown in FIG. 3) developed in CPGI2-treated versus saline-treated groups. Arteriolar networks were identified by their branching out from a large feeder femoral artery or from a saphenous branch of descending genicular artery.

ischemic hindlimbs [3] = experiment: Laser Doppler perfusion of ischemic hindlimbs with local CPGI2 delivery by osmotic pump; type: in vivo, mice; details: local delivery to ischemic thigh muscle, n=5/group
Protocol: Serial measurements of perfusion were performed with the use of a laser Doppler image device (Perimed AB, […]) at 24 hours and 3, 5, 7, and 14 days after cell injections in the cell-treated groups and at the same time points in iloprost-treated mice. Perfusion was expressed as the perfusion ratio in the ischemic compared to the contralateral, non-manipulated leg. The outcomes of local delivery of CPGI2, a prostacyclin analogue, to ischemic hindlimbs were investigated. More specifically, blood perfusion in ischemic hindlimbs was monitored in conjunction with CPGI2 treatment. An osmotic pump was implanted and a catheter was used to deliver the prostacyclin analogue CPGI2 or saline (vehicle) to the surface of the ischemic anterior thigh muscle for up to 14 days.

[4] = system: hMSCs in ischemic hindlimbs of NOD/SCID mice; experiment: In vivo bioluminescence imaging of hMSC retention with daily SEE drug treatment; details: 3 days, hMSCs preconditioned 100 nM 4 days
Protocol: The ability of stem cells to engraft in ischemic tissues in the presence of SEE was investigated. More specifically, the ability of hMSCs to engraft in ischemic hindlimbs in the presence of different SEEs was investigated. The studies were conducted in as described in Example 5, unless otherwise specified. To investigate the signaling pathways involved in prostacyclin-induced cell retention after hindlimb ischemia, hMSCs were preconditioned with either prostacyclin receptor agonist Cicaprost (100 nM) or PPARβ/δ agonist GW501516 (100 nM) for 4 days in vitro. Cells were then injected into the gastrocnemius of ischemic hindlimbs of NOD/SCID mice. After cell injection, mice were either treated daily with Cicaprost (oral gavage, LD=0.3 mg/kg/day; HD=1 mg/kg/day) or GW501516 (intra peritoneal (IP), 5 mg/kg/day). LD=low dose and HD=high dose. In vivo BLI was performed on cell-drug treated mice.

[5] = in vivo; cited from earlier work

CCCCC[C@H](O)/C=C/[C@@H]1[C@H]2C/C(=C/CCCC(=O)O)C[C@H]2C[C@H]1O [CPGI2, Carbaprostacyclin]
distance between vessels (ischemic hindlimbs [1]; ischemic legs, 14 days): 6.60±0.52 mm | vascular volume (ischemic hindlimbs [1]; ischemic legs, 14 days after femoral occlusion, constant local administration): 41.28±2.22 mm^3 | small vessels, vessel diameter bins 40-60 μm, relative to saline-treated ischemic legs (ischemic hindlimbs [1]; micro-CT histogram, ischemic legs): significant increase | morphologic variables of contralateral non-ischemic legs versus saline-treated (ischemic hindlimbs [1]; non-ischemic legs, 14 days): No significant differences | structural remodeling at the arteriolar level versus saline group (ischemic hindlimbs [2]; 7 days after treatment): more distinct | number of microvessels ranging in size from 15-50 m in diameter (ischemic hindlimbs [2]; quantitative confocal analysis): 38.00±2.41 /high-power field [HPF] | blood flow recovery (ischemic hindlimbs [3]; 7 days, perfusion ischemic vs contralateral leg): 58.80±5.74% | blood flow recovery (ischemic hindlimbs [3]; 14 days): 88.40±8.71%

CCC#CC[C@H](C)[C@H](O)C#C[C@@H]1[C@H]2C/C(=C/COCC(=O)O)C[C@H]2C[C@H]1O [Cicaprost]
bioluminescent intensity (hMSC retention) versus no drug treatment ([4]; oral gavage daily 0.3 or 1 mg/kg/day): markedly higher

Cc1cc(SCc2sc(-c3ccc(C(F)(F)F)cc3)nc2C)ccc1OCC(=O)O [GW501516]
bioluminescent intensity (hMSC retention) versus no drug treatment ([4]; intra peritoneal 5 mg/kg/day): markedly higher

CCCCC[C@H](O)/C=C/[C@@H]1[C@H]2C/C(=C/CCCC(=O)O)O[C@H]2C[C@H]1O [PGI2, prostacyclin]
circulating half-life [5]: 1 to 2 min
